The values below come from ChEMBL document CHEMBL5584354, “Impact of Conjugation of the Reactive Oxygen Species (ROS)-Generating Catalytic Moiety with Membrane-Active Antimicrobial Peptoids: Promoting Multitarget Mechanism and Enhancing Selectivity” (J Med Chem, 2024).

As a reminder, the MIC is the lowest concentration found to suppress growth. One may read the HC50 as the concentration that lyses half of the red blood cells. For orientation: LC50 means the concentration that kills 50% of the test population.

Converted amounts (≈) assume the structure as drawn. The source made the active and inactive calls. No cut-off for these calls is given here. Non-standard residues stand in square brackets, D forms with d. Residues, ends and D or L forms follow the SMILES beside them. Gly(N(CH2)2(3-indolyl)) = O=C(O)CNCCc1c[nH]c2ccccc12; Nspe = C[C@H](NCC(=O)O)c1ccccc1; Nlys = NCCCCNCC(=O)O

Data set [1] relates to Escherichia coli. Description: Antibacterial activity against Escherichia coli ATCC 25922 assessed as inhibition of bacterial growth incubated for 24 hrs by broth dilution method. The format is functional. (In broth dilution the organism is exposed to a series of concentrations in liquid medium.)
The test system of data set [2] is Staphylococcus aureus. The data set can be described thus: Antibacterial activity against Staphylococcus aureus ATCC 25923 assessed as inhibition of bacterial growth incubated for 24 hrs by broth dilution method. Format: functional.
Data set [3] is described as follows: Hemolytic activity in male Sprague-Dawley rat erythrocytes at 25 uM incubated for 1 hr by absorbance based method relative to control. Format: toxicity, cell-based, Erythrocyte. The note with it: read-out: Activity.
Data set [4] is described as follows: Hemolytic activity in male Sprague-Dawley rat erythrocytes at 50 uM incubated for 1 hr by absorbance based method relative to control. Format: toxicity, cell-based, Erythrocyte. As to conditions: read-out: Activity.
A short description of data set [5]: Hemolytic activity in male Sprague-Dawley rat erythrocytes at 100 uM incubated for 1 hr by absorbance based method relative to control. Format: toxicity, cell-based, Erythrocyte. The note with it: read-out: Activity.
The test system of data set [6] is Erythrocyte. Description: Hemolytic activity in male Sprague-Dawley rat erythrocytes assessed as concentration required for 10% hemolysis incubated for 1 hr by absorbance based method. The format is toxicity, cell-based.
Data set [7] is described as follows: Hemolytic activity in male Sprague-Dawley rat erythrocytes assessed as concentration required for 50% hemolysis incubated for 1 hr by absorbance based method. Format: toxicity, cell-based, Erythrocyte.
Data set [8] in a line: Selectivity index, ratio of HC10 for hemolytic activity in male Sprague-Dawley rat erythrocytes to MIC for antibacterial activity against Escherichia coli ATCC 25922. The format is toxicity. As to conditions: read-out: Selectivity Index.
The subject of data set [9] is HaCaT. Description: Cytotoxicity against human HaCaT cells assessed as cell killing incubated for 24 hrs by MTS assay. The format is toxicity, cell-based.
For data set [10], the system named is MRC5. The data set can be described thus: Cytotoxicity against human MRC5 cells assessed as cell killing incubated for 24 hrs by MTS assay. Format: toxicity, cell-based. As to conditions: mrc5, 24 h.
Data set [11] concerns RAW264.7. The data set can be described thus: Cytotoxicity against mouse RAW264.7 cells assessed as cell killing incubated for 24 hrs by MTS assay. The format is toxicity, cell-based. The note with it: raw264.7, 24 h. A general note: Tetrazolium assays rely on reduction of a dye to a coloured formazan, in cell work by metabolically active cells.
In data set [12] the test system is HEK293. Description: Cytotoxicity against HEK293 cells assessed as cell killing incubated for 24 hrs by MTS assay. The format is toxicity, cell-based. The note with it: human, hek293, 24 h.
Data set [13] has as its system Escherichia coli. The data set can be described thus: Antibacterial activity against carbapenem-resistant Escherichia coli NMS11035 harboring extended-spectrum beta-lactamase assessed as inhibition of bacterial growth incubated for 24 hrs by broth dilution method. The format is functional.
Data set [14] relates to Escherichia coli. Description: Antibacterial activity against colistin-resistant Escherichia coli NMS12 harboring extended-spectrum beta-lactamase assessed as inhibition of bacterial growth incubated for 24 hrs by broth dilution method. The format is functional.
Data set [15] deals with Acinetobacter baumannii. The data set can be described thus: Antibacterial activity against carbapenem-resistant Acinetobacter baumannii NMS1707 harboring extended-spectrum beta-lactamase assessed as inhibition of bacterial growth incubated for 24 hrs by broth dilution method. Format: functional.
Data set [16] deals with Klebsiella pneumoniae. The data set can be described thus: Antibacterial activity against carbapenem-resistant Klebsiella pneumoniae NMS118 harboring extended-spectrum beta-lactamase assessed as inhibition of bacterial growth incubated for 24 hrs by broth dilution method. Format: functional.
For data set [17], the system named is Cell membrane. The data set can be described thus: Disruption of outer membrane in Escherichia coli ATCC 25922 assessed as increase in absorbance measured every 5 mins for 90 mins by nitrocefin assay. As to conditions: dose 0-25 µM. Format: cell membranes.
Data set [18] relates to Cell membrane. The data set can be described thus: Disruption of inner membrane in Escherichia coli ATCC 25922 assessed as increase in absorbance incubated for 1 hr by ONPG assay. Format: cell membranes. The note with it: dose 0-25 µM.
The subject of data set [19] is Lipopolysaccharide (LPS). The data set can be described thus: Binding affinity to Escherichia coli O111:B4 LPS at 0 to 25 uM BODIPY-TR-cadaverine substitution assay. As to conditions: dose 0-25 µM. Format: subcellular.
Data set [20] concerns DNA. Description: Binding affinity to pUC19 plasmid DNA (unknown origin) assessed as smearing and retardation of DNA bands at 25 uM incubated for 2 hrs by agarose gel imaging method. The format is nucleic-acid assay.
In data set [21] the test system is Escherichia coli. Description: Induction of lipid peroxidation in Escherichia coli ATCC 25922 assessed as increase in MDA level at 10 uM incubated for 2 hrs by TBARS assay. Format: functional, organism-based.
The test system of data set [22] is Escherichia coli. Description: Induction of lipid peroxidation in Escherichia coli ATCC 25922 assessed as increase in green fluorescence at 12.5 uM incubated for 1 hrs by BODIPY 581/591 C11 dye based confocal microscopic analysis. Format: functional, organism-based.
In data set [23] the test system is Escherichia coli. The data set can be described thus: Induction of lipid peroxidation in Escherichia coli ATCC 25922 at 12.5 uM incubated for 1 hrs by BODIPY 581/591 C11 dye based flow cytometry analysis. Format: functional, organism-based. In general terms: In flow cytometry, cells or beads pass a laser one at a time.
Data set [24] in a line: Cytotoxicity against mouse RAW264.7 cells assessed as cell viability at 10 uM incubated for 24 hrs by […] relative to control. The format is toxicity, cell-based. As to conditions: read-out: Activity.
Data set [25] in a line: Cytotoxicity against mouse RAW264.7 cells assessed as cell viability at 20 uM incubated for 24 hrs by […] relative to control. The format is toxicity, cell-based. As to conditions: read-out: Activity.
The test system of data set [26] is RAW264.7. Description: Antiinflammatory activity in LPS-stimulated mouse RAW264.7 cells assessed as reduction in TNFalpha production at 10 uM incubated for 16 hrs by ELISA relative to control. The format is functional. On the set-up: scale not given: the % may be the effect or the level left.
The test system of data set [27] is RAW264.7. The data set can be described thus: Antiinflammatory activity in LPS-stimulated mouse RAW264.7 cells assessed as reduction in IL-6 production at 10 uM incubated for 16 hrs by ELISA relative to control. The format is functional. On the set-up: scale not given: the % may be the effect or the level left.
For data set [28], the system named is RAW264.7. The data set can be described thus: Antiinflammatory activity in LPS-stimulated mouse RAW264.7 cells assessed as reduction in IL-1beta production at 10 uM incubated for 16 hrs by ELISA relative to control. Format: functional. Further details: scale not given: the % may be the effect or the level left.
Data set [29] deals with RAW264.7. The data set can be described thus: Antiinflammatory activity in LPS-stimulated mouse RAW264.7 cells assessed as reduction in nitrite production at 10 uM incubated for 16 hrs by ELISA relative to control. Format: functional. Further details: scale not given: the % may be the effect or the level left.
A short description of data set [30]: Cytotoxicity against mouse RAW264.7 cells assessed as cell survival at 5 uM incubated for 24 hrs by […] relative to control. The format is toxicity, cell-based. As to conditions: read-out: Survival.
Data set [31] can be described thus: Cytotoxicity against mouse RAW264.7 cells assessed as cell survival at 5 uM incubated for 24 hrs in presence of nickel by […] relative to control. The format is toxicity, cell-based. As to conditions: read-out: Survival.
Data set [32] is described as follows: Cytotoxicity against mouse RAW264.7 cells assessed as cell survival at 5 uM incubated for 24 hrs in presence of copper by […] relative to control. Format: toxicity, cell-based. The note with it: read-out: Survival.
Data set [33] in a line: Cytotoxicity against mouse L929 cells assessed as reduction in cell survival at 6.3 uM incubated for 24 hrs by WST-8 assay relative to control. Format: toxicity, cell-based. As to conditions: read-out: Survival.
A short description of data set [34]: Cytotoxicity against HEK293 cells assessed as reduction in cell survival at 6.3 uM incubated for 24 hrs by WST-8 assay relative to control. The note with it: human, read-out: Survival. Format: toxicity, cell-based.

In the case of `C[C@@H](c1ccccc1)N(CC(=O)N(CCCCN)CC(=O)N(CCc1c[nH]c2ccccc12)CC(=O)N(CCc1c[nH]c2ccccc12)CC(N)=O)C(=O)CN(CCCCN)C(=O)CN(CCCCN)C(=O)CN(C(=O)CN(C(=O)CN(CCCCN)C(=O)CN(C(=O)CN(C(=O)CNCCCCN)[C@@H](C)c1ccccc1)[C@@H](C)c1ccccc1)[C@@H](C)c1ccccc1)[C@@H](C)c1ccccc1` (H-[Nlys][Nspe][Nspe][Nlys][Nspe][Nspe][Nlys][Nlys][Nspe][Nlys][Gly(N(CH2)2(3-indolyl))][Gly(N(CH2)2(3-indolyl))]-NH2), the MIC was 6.3 µM (≈ 11.7 µg/mL) in data set [1]; 6.3 µM (≈ 11.7 µg/mL) in data set [2]; 6.3 µM (≈ 11.7 µg/mL) in [13]; 12.5 µM (≈ 23.3 µg/mL) in [14]; 3.1 µM (≈ 5.78 µg/mL) in data set [15]; 12.5 µM (≈ 23.3 µg/mL) in data set [16]. In addition, the hemolysis at 1 h, 25 µM in data set [3] stood at 2.72%. In addition, the hemolysis at 1 h, 50 µM in [4] amounted to 7.85%. Also, the hemolysis at 1 h, 100 µM in data set [5] stood at 6.7%. Besides, in data set [6], the HC10 is above 100 µM. Moreover, in [7], the HC50 at 1 h was above 100 µM. For the same molecule, the selectivity ratio in [8] is above 15.8. Further, the LC50 came to 18.8 µM in data set [9], 11.8 µM in [10], 14.9 µM in data set [11] and 16.3 µM in data set [12]. The Activity entry in [17] was “Dose-Dependent Effect”; in data set [18], “Dose-Dependent Effect”; in [26], 54.4%; in data set [27], 99%; in data set [28] it was 72.9%; in [29], 88.7%. In addition, the result in data set [19], in data set [20], in data set [21], in data set [22] and in data set [23] was Active. Moreover, in data set [24], the viability at 24 h, 10 µM is 55.9%. Besides, the viability at 24 h, 20 µM in [25] stood at 14.7%.
On to `CC[C@H](C)[C@H](NC(=O)CN)C(=O)NCC(=O)N[C@@H](C)C(=O)N[C@H](C(=O)N[C@@H](CC(C)C)C(=O)N[C@@H](CCCCN)C(=O)N[C@H](C(=O)N[C@@H](CC(C)C)C(=O)N[C@H](C(=O)N[C@H](C(=O)NCC(=O)N[C@@H](CC(C)C)C(=O)N1CCC[C@H]1C(=O)N[C@@H](C)C(=O)N[C@@H](CC(C)C)C(=O)N[C@H](C(=O)N[C@@H](CO)C(=O)N[C@@H](Cc1c[nH]c2ccccc12)C(=O)N[C@H](C(=O)N[C@@H](CCCCN)C(=O)N[C@@H](CCCNC(=N)N)C(=O)N[C@@H](CCCCN)C(=O)N[C@@H](CCCNC(=N)N)C(=O)N[C@@H](CCC(N)=O)C(=O)N[C@@H](CCC(N)=O)C(N)=O)[C@@H](C)CC)[C@@H](C)CC)[C@@H](C)O)[C@@H](C)O)C(C)C)C(C)C` [MELITTIN], for which the viability at 24 h, 5 µM in data set [30], in [31] and in [32] was below 24.6% each time. Further, the viability at 24 h, 6.3 µM in [33] and in [34] was below 21.5% throughout.
